Data as given in patent US11951098B2, “Therapeutic agent for meibomian dysfunction” (SANTEN PHARMACEUTICAL CO., LTD., priority 2013, dated 2024).

Experiments:
[1] = test system: HR-AD feed fed Hos: HR-1 series hairless mouse; assay: Test using HR-AD feed fed hairless mouse; assay type: in vivo, Hos: HR-1 series hairless mice; details: for Number of obstructive orifices: among eight orifices at centre of upper eyelid
Procedure: It has been known that a HR-AD feed is fed to Hos: HR-1 series hairless mouse, obstruction of the meibomian gland orifices similar to the signs/findings of MGD could be recognized (Japanese Patent Application No. 2012-137778). Thus, effects of sirolimus and deforolimus which are representative examples of the present compounds on the obstruction were investigated.
0.1% (w/v) sirolimus suspension: it was prepared by suspending in 0.01% (w/v) hydroxypropylmethyl cellulose.
0.1% (w/v) deforolimus suspension: it was prepared by suspending in 0.01% (w/v) hydroxypropylmethyl cellulose. Incidentally, deforolimus used in the present test was prepared according to the method described in JP 2005-516065A.
Six-weeks old male Hos: HR-1 series hairless mice were grouped into 5 mice of a normal feed fed group (CRF-1 feed, available from Oriental Yeast Co., Ltd.) and 15 mice of a HR-AD feed fed group (available from Nosan Corporation), and fed the normal feed or the HR-AD feed, respectively, which were spontaneously taken. After 28th day from initiation of the feeding, the meibomian gland orifices were observed by using a slit lamp, and a number of obstructive orifices among the eight meibomian gland orifices at the center of the upper eyelid was measured. Incidentally, the presence or absence of obstruction of the meibomian gland orifices was judged by the state whether the meibomian gland orifices were in a turbid and raised or not (see JP 2014-023526A).
Fifteen mice of the HR-AD feed fed group were grouped into a physiological saline solution-administered group, a 0.1% sirolimus suspension-administered group and a 0.1% deforolimus suspension-administered group (5 mice in each group), and from 29th day from initiation of the feeding, the physiological saline solution (2 μL/eye, twice a day), the 0.1% sirolimus suspension (2 μL/eye, twice a day) or the 0.1% (w/v) deforolimus suspension (2 μL/eye, twice a day) were dropped to the eye for 28 days. At 42nd day and 56th day after initiation of the feeding, a number of obstructions of the meibomian gland orifices was measured by using a slit lamp.

[2] = test system: complete Freund's adjuvant administered rabbit; assay: Test using complete Freund's adjuvant administered rabbit; assay type: in vivo, Japanese white rabbits; details: average; for Score of telangiectasia: right upper eyelid, sum of three fractions
Procedure: In a complete Freund's adjuvant administered rabbit, telangiectasia around the meibomian gland orifices, and obstruction at the meibomian gland orifices, which are similar to the signs/findings of MGD can be recognized. Effects of sirolimus which was a representative example of the present compound on the telangiectasia and obstruction were investigated (see JP 2014-024835A).
0.1% (w/v) sirolimus suspension: it was prepared by suspending in 0.01% (w/v) hydroxypropylmethyl cellulose. Incidentally, with regard to sirolimus, that purchased from LKT Laboratories, Inc., (Catalog number: R0161) was used (which is the same in the following Examples).
10 μL of the complete Freund's adjuvant was administered to the right upper eyelid (3 portions) of about 2 kg of male Japanese white rabbits, respectively. After 4 days from provocation, around the meibomian gland orifices of the right upper eyelid was observed by using slit lamp, a score of telangiectasia and a score of obstruction at the meibomian gland orifices were judged.
Incidentally, with regard to the score of telangiectasia, in accordance with the criteria in the following Tables 1 and 2, the eyelid margin of the upper eyelid was equally divided to three fractions of the ear side, the center portion and the nose side, the score of telangiectasia around the meibomian gland orifices was judged with regard to the respective fractions, and the sum of the scores of the three fractions was calculated as a score per one eye. Here, the presence or absence of dilation of the capillaries was judged by the state whether the capillaries which cannot be usually recognized with naked eyes can be recognized or not as a result of dilation of the diameter of the blood vessel. Also, the presence or absence of obstruction of the meibomian gland orifices was judged by the state whether the meibomian gland orifices are in a turbid or not.
The rabbits were grouped into a physiological saline solution-administered group and a 0.1% sirolimus suspension-administered group, and tested with 7 or 8 eyes in each group so that fluctuation of the average value of the respective scores became small. After 5th day from provocation, a physiological saline solution (50 μL/eye, twice a day) or a 0.1% sirolimus suspension (50 μL/eye, twice a day) was dropped into the right eye for 10 days. After 11th and 15th days from provocation, around the meibomian gland orifices of the right upper eyelid was observed by using a slit lamp, whereby the score of telangiectasia was judged and the number of the obstructive orifices was measured.

[3] = 42nd day after initiation of the feeding, 0.1% (w/v) suspension 2 μL/eye twice a day from 29th day
[4] = 56th day after initiation of the feeding, 0.1% (w/v) suspension 2 μL/eye twice a day for 28 days
[5] = 11th day after provocation, 0.1% (w/v) suspension 50 μL/eye twice a day from 5th day
[6] = 15th day after provocation, 0.1% (w/v) suspension 50 μL/eye twice a day for 10 days

Structure (SMILES)	Effect on number of the obstructions of the meibomian gland orifices (in words) ([1]; 0.1% suspension instilled, versus physiological saline group)	Number of obstructive orifices [1, 3]	Number of obstructive orifices [1, 4]	Score of obstruction of orifices [2, 5]	Score of telangiectasia [2, 5]	Score of obstruction of orifices [2, 6]	Score of telangiectasia [2, 6]
CO[C@H]1C[C@@H]2CC[C@@H](C)[C@@](O)(O2)C(=O)C(=O)N2CCCC[C@H]2C(=O)O[C@H]([C@H](C)C[C@@H]2CC[C@@H](OP(C)(C)=O)[C@H](OC)C2)CC(=O)[C@H](C)/C=C(\C)[C@@H](O)[C@@H](OC)C(=O)[C@H](C)C[C@H](C)/C=C/C=C/C=C/1C [0.1% Deforolimus suspension, deforolimus]	decreased	2.7	2.2				
CO[C@H]1C[C@@H]2CC[C@@H](C)[C@@](O)(O2)C(=O)C(=O)N2CCCC[C@H]2C(=O)O[C@H]([C@H](C)C[C@@H]2CC[C@@H](O)[C@H](OC)C2)CC(=O)[C@H](C)/C=C(\C)[C@@H](O)[C@@H](OC)C(=O)[C@H](C)C[C@H](C)/C=C/C=C/C=C/1C [0.1% Sirolimus suspension, sirolimus]		0.7	0.0	2.3	2.1	1.3	2.1
